Reference: patent publication US20050095299A1, “Controlled release analgesic suspensions” (priority 2003, published 2005)

Assay: Therapeutic duration of action of an immediate release dose (from dosing instructions in labeling)
Type: in vivo
Text: As used herein, “ATDAIRD” shall mean the average therapeutic duration of action of an effective immediate release dose” of a particular active ingredient. […] The therapeutic duration of action of a particular active ingredient can readily be determined from the dosing instructions in the labeling for immediate release products containing that particular active ingredient.

Row | Structure (SMILES) | ATDAIRD (average therapeutic duration of action of an effective immediate release dose) [h]
1 | CC(C)Cc1ccc(C(C)C(=O)O)cc1 (stereo not drawn) [ibuprofen, 2-(4-isobutylphenyl)-propionic acid] | 5
2 | CC(C(=O)O)c1cccc(C(=O)c2ccccc2)c1 (stereo not drawn) [ketoprofen] | 5
3 | COc1ccc2cc([C@H](C)C(=O)O)ccc2c1 [naproxen] | 10
